# Results published in patent publication US11214803B2, “Modulators of YAP1 expression” (Ionis Pharmaceuticals, Inc., priority 2019, dated 2022).
# Strand notation (5' to 3'): a small letter for the sugar, then the base; units joined by * are phosphorothioate-linked, units joined directly phosphodiester-linked; [ ] holds rarer units or linkages, { } end groups; capitals alone tell only the bases. k = constrained ethyl (cEt); [5mC] = 5-methylcytosine; d = 2'-deoxy (DNA)
# Tested on: Yap1 mRNA
# Assay: Antisense inhibition of human Yap1 in A-431 cells by cEt gapmers, single dose (Example 3, RTS36584)
# Type: cell-based
# Conditions: Table 8; A-431 cells, 5,000 cells per well, free uptake, 2,000 nM, approximately 48 hours; RTS36584; normalized to RIBOGREEN; Yap1 mRNA relative to untreated control cells
# Outline: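 A-431 cells (5,000/well) took up the 3-10-3 cEt gapmers by free uptake at 2,000 nM for about 48 h. Yap1 mRNA was measured by RT-qPCR with primer probe set RTS36584, normalized to RiboGreen total RNA, and given as % of untreated control.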
row,Substance,YAP1 (% UTC)
1,958355 (antisense k[5mC]*kG*kT*dT*dG*dG*d[5mC]*d[5mC]*dG*dT*d[5mC]*dT*dT*kG*kG*kG) [Compound 958355],51

# Same assay, conditions: Table 9; A-431 cells, 5,000 cells per well, free uptake, 2,000 nM, approximately 48 hours; RTS36584; normalized to RIBOGREEN; Yap1 mRNA relative to untreated control cells
row,Substance,YAP1 (% UTC)
1,958456 (antisense kG*kG*k[5mC]*d[5mC]*dA*dG*dA*dG*dA*d[5mC]*dT*dA*d[5mC]*kT*k[5mC]*k[5mC]) [Compound 958456],90
2,958541 (kG*kT*kA*dT*dT*d[5mC]*dT*dA*dT*d[5mC]*d[5mC]*dA*dG*kG*kG*kT; antisense) [Compound 958541],4
3,958486 (kT*kT*kA*dG*dA*dG*d[5mC]*d[5mC]*dA*dA*d[5mC]*dT*dG*kT*kG*kA; antisense) [Compound 958486],9
4,958721 (antisense kG*kT*kA*dG*dT*dA*dT*dA*dA*dT*dG*dA*dG*kT*kT*kA) [Compound 958721],1

# Same assay, conditions: Table 10; A-431 cells, 5,000 cells per well, free uptake, 2,000 nM oligonucleotide, approx. 48 hours; primer probe set RTS36584; Yap1 mRNA normalized to RIBOGREEN, percent of untreated control
row,Substance,YAP1 (% UTC)
1,958757 (antisense kG*kT*kG*dA*dT*d[5mC]*dT*dG*d[5mC]*dA*d[5mC]*dA*dT*kT*kG*kT) [Compound 958757],5
2,958712 (antisense kT*kT*kA*dT*dA*dT*dA*dG*dG*dT*dT*dA*d[5mC]*kA*kG*kA) [Compound 958712],52
3,958547 (k[5mC]*kA*k[5mC]*dA*dT*dA*d[5mC]*dT*d[5mC]*dT*dA*dG*dT*kT*kA*k[5mC]; antisense) [Compound 958547],4
4,958692 (antisense kG*kG*k[5mC]*dT*dA*dG*dA*dG*dG*d[5mC]*d[5mC]*dG*dG*kG*kT*kG) [Compound 958692],105
5,958762 (antisense kG*kA*kT*dT*dA*dG*dA*dG*dG*dA*d[5mC]*dT*d[5mC]*kA*kT*kT) [Compound 958762],16

# Same assay, conditions: Table 11; A-431 cells, 5,000 cells per well, free uptake, 2,000 nM oligonucleotide, approx. 48 hours; primer probe set RTS36584; Yap1 mRNA normalized to RIBOGREEN, percent of untreated control
row,Substance,YAP1 (% UTC)
1,958573 (kG*kG*k[5mC]*dA*dA*dA*dT*dT*dA*dT*dA*dG*dG*k[5mC]*kA*k[5mC]; antisense) [Compound 958573],2
2,958518 (k[5mC]*k[5mC]*kA*d[5mC]*dA*dG*dT*dA*dA*dT*dA*dG*d[5mC]*kT*k[5mC]*kT; antisense) [Compound 958518],1
3,958478 (antisense kG*kG*kA*dA*dA*dT*dT*dT*d[5mC]*d[5mC]*dG*dG*dT*kG*k[5mC]*kA) [Compound 958478],14
4,958458 (antisense kG*kT*kT*d[5mC]*dA*dT*d[5mC]*dT*dG*dG*dG*dA*d[5mC]*kA*kG*k[5mC]) [Compound 958458],12
5,958663 (k[5mC]*kT*kA*dT*dT*dA*dG*dG*dG*dA*d[5mC]*dT*dG*kA*kA*k[5mC]; antisense) [Compound 958663],32

# Same assay, conditions: Table 12; A-431 cells, 5,000 cells per well, free uptake, 2,000 nM modified oligonucleotide, approx. 48 hours; RTS36584; normalized to RIBOGREEN; Yap1 mRNA relative to untreated control cells
row,Substance,YAP1 (% UTC)
1,958619 (antisense kT*kG*kG*dG*dT*d[5mC]*dT*dA*dG*d[5mC]*d[5mC]*dA*dA*kG*kA*kG) [Compound 958619],71
2,958579 (kA*kT*k[5mC]*dT*dT*dA*dA*dT*d[5mC]*dT*dG*dT*dG*kG*k[5mC]*kT; antisense) [Compound 958579],4
3,958689 (antisense k[5mC]*kA*kT*dT*dA*dA*dG*dG*dA*dG*dG*dT*dT*kA*kT*kG) [Compound 958689],87
4,958774 (antisense kT*kG*k[5mC]*dT*dA*dG*dA*dT*dA*dT*d[5mC]*dG*d[5mC]*k[5mC]*kA*kA) [Compound 958774],33

# Same assay, conditions: Table 13; A-431 cells, 5,000 cells per well, free uptake, 2,000 nM modified oligonucleotide, approx. 48 hours; RTS36584; normalized to RIBOGREEN; Yap1 mRNA relative to untreated control cells
row,Substance,YAP1 (% UTC)
1,958660 (k[5mC]*k[5mC]*k[5mC]*dA*d[5mC]*dT*dG*dG*dG*dT*dT*dT*dG*kT*k[5mC]*k[5mC]; antisense) [Compound 958660],106
2,958700 (antisense k[5mC]*kT*kA*dA*dT*dA*dT*dA*dG*dA*d[5mC]*dT*dA*k[5mC]*kT*k[5mC]) [Compound 958700],55
3,958490 (kG*kT*kG*dA*d[5mC]*dA*dT*dG*dA*dA*dG*d[5mC]*dA*kT*k[5mC]*kT; antisense) [Compound 958490],5
4,958515 (k[5mC]*k[5mC]*k[5mC]*d[5mC]*dA*dA*d[5mC]*d[5mC]*dA*dG*dA*dT*dT*kT*kA*kA; antisense) [Compound 958515],28
5,958770 (antisense kA*k[5mC]*kA*dG*dA*dG*d[5mC]*dG*dG*dT*dG*d[5mC]*dA*k[5mC]*k[5mC]*k[5mC]) [Compound 958770],64
6,958745 (antisense kT*k[5mC]*k[5mC]*d[5mC]*dA*dG*d[5mC]*d[5mC]*dG*d[5mC]*dA*dT*dG*kG*k[5mC]*kT) [Compound 958745],78

# Same assay, conditions: Table 26; Yap1 mRNA by 3-10-3 cEt gapmers targeting SEQ ID NO.: 1, and 2; percent of untreated control
row,Substance,YAP1 (% UTC)
1,1075020 (antisense kT*kT*kA*dA*dT*dT*dA*dG*d[5mC]*dA*dT*dT*dA*kG*kA*kG) [compound 1075020],30
2,1075404 (antisense kA*kT*kA*dT*dA*dA*d[5mC]*d[5mC]*dT*dG*dA*dA*d[5mC]*kT*kA*kA) [compound 1075404],102
3,1074668 (antisense kT*k[5mC]*k[5mC]*d[5mC]*dA*dA*d[5mC]*dA*dA*d[5mC]*dA*dT*dG*k[5mC]*kT*kA) [compound 1074668],20
4,1076364 (antisense k[5mC]*k[5mC]*kA*dT*dA*dA*dA*dA*dG*dT*d[5mC]*d[5mC]*dA*k[5mC]*kT*kA) [compound 1076364],30

# Same assay, conditions: Table 27; Yap1 mRNA by 3-10-3 cEt gapmers targeting SEQ ID NO.: 1, and 2; percent of untreated control
row,Substance,YAP1 (% UTC)
1,1076013 (kG*kT*kT*dT*dA*dA*dT*dA*d[5mC]*d[5mC]*dT*d[5mC]*dT*kG*kA*k[5mC]; antisense) [compound 1076013],76
2,1075565 (kT*kA*kT*dA*dT*dA*dA*d[5mC]*dA*dG*dG*d[5mC]*d[5mC]*kA*k[5mC]*k[5mC]; antisense) [compound 1075565],52

# Same assay, conditions: Table 28; Yap1 mRNA as percent of untreated control; 3-10-3 cEt gapmers targeting SEQ ID NO.: 1, and 2
row,Substance,YAP1 (% UTC)
1,1075694 (kA*k[5mC]*kA*dT*dT*dA*dA*dA*dA*dG*dT*dT*dG*kG*kG*kT; antisense) [compound 1075694],11
2,1075310 (antisense kG*kT*kA*dA*dT*dT*dA*dA*dA*d[5mC]*dG*dA*dA*kA*k[5mC]*kA) [compound 1075310],84

# Same assay, conditions: Table 29; Yap1 mRNA as percent of untreated control; 3-10-3 cEt gapmers targeting SEQ ID NO.: 1, and 2
row,Substance,YAP1 (% UTC)
1,1074735 (kG*kA*kT*d[5mC]*dA*dA*dA*dG*d[5mC]*dA*d[5mC]*dT*dG*kT*kG*k[5mC]; antisense) [compound 1074735],117
2,1074703 (antisense k[5mC]*kG*kG*dT*dG*dT*dA*dA*dG*dA*d[5mC]*dA*dA*kG*kT*k[5mC]) [compound 1074703],16
3,1076431 (k[5mC]*kA*k[5mC]*d[5mC]*dA*dA*dT*dA*dG*dA*dA*d[5mC]*dA*kT*kA*kT; antisense) [compound 1076431],31

# Same assay, conditions: Table 34; Yap1 mRNA as percent of untreated control; 3-10-3 cEt gapmers targeting SEQ ID NO: 1 and 2; single dose
row,Substance,YAP1 (% UTC)
1,1074996 (antisense kA*kA*kT*dA*dA*dA*dT*dG*d[5mC]*dT*dT*dA*d[5mC]*kG*kG*kG) [compound 1074996],60
2,1076212 (k[5mC]*kA*kA*dA*dT*dT*dT*dA*dT*dA*dT*dG*d[5mC]*kT*k[5mC]*k[5mC]; antisense) [compound 1076212],15
3,1075252 (kT*kT*kA*dA*dT*dT*dA*d[5mC]*dG*dA*dT*dT*dA*kG*kA*kT; antisense) [compound 1075252],90

# Same assay, conditions: Table 35; Yap1 mRNA as percent of untreated control; 3-10-3 cEt gapmers targeting SEQ ID NO: 1 and 2; single dose
row,Substance,YAP1 (% UTC)
1,1075253 (kG*kT*kT*dA*dA*dT*dT*dA*d[5mC]*dG*dA*dT*dT*kA*kG*kA; antisense) [compound 1075253],20
